# Experimental data published in PubChem BioAssay (NCI).
# Several values for one entry are separate records, joined by “and”; a condition that tells them apart may be missing. Equal values may be shown once.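 Grown in 96-well plates, cells were treated for 48 hours with each compound at five concentrations. Insufficient inhibition: endpoint recorded as highest concentration tested. At the GI50, growth is halved. At the TGI there is no net growth.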
# Tests used:
# Assay in all cases: NCI-60 cell line screen, 48 h
# OVCAR-8 ovarian = tested on: OVCAR-8 ovarian
# SK-MEL-2 melanoma = tested on: SK-MEL-2 melanoma
# SW-620 colon = tested on: SW-620 colon
# RPMI-8226 leukemia = tested on: RPMI-8226 leukemia
# OVCAR-3 ovarian = tested on: OVCAR-3 ovarian
# UO-31 renal = tested on: UO-31 renal
# MDA-MB-231 breast = tested on: MDA-MB-231 breast
# SK-MEL-28 melanoma = tested on: SK-MEL-28 melanoma
# MOLT-4 leukemia = tested on: MOLT-4 leukemia
# SNB-75 CNS = tested on: SNB-75 CNS
SMILES,GI50 (OVCAR-8 ovarian),TGI (OVCAR-8 ovarian),GI50 (SK-MEL-2 melanoma),TGI (SK-MEL-2 melanoma),GI50 (SW-620 colon),TGI (SW-620 colon),GI50 (RPMI-8226 leukemia),TGI (RPMI-8226 leukemia),GI50 (OVCAR-3 ovarian),TGI (OVCAR-3 ovarian),GI50 (UO-31 renal),TGI (UO-31 renal),GI50 (MDA-MB-231 breast),TGI (MDA-MB-231 breast),GI50 (SK-MEL-28 melanoma),TGI (SK-MEL-28 melanoma),GI50 (MOLT-4 leukemia),TGI (MOLT-4 leukemia),GI50 (SNB-75 CNS),TGI (SNB-75 CNS)
O=C1Nc2ccc(O)cc2/C1=C\c1ccncc1,25.4 µM,> 100 µM,14.5 µM,43.1 µM,25.5 µM,58.3 µM,34.1 µM,> 100 µM,13.3 µM,41 µM,14.1 µM,31.8 µM,14.6 µM,39.4 µM,,,,,,
CCC[CH2][Sn]1([CH2]CCC)[O]C(=O)CN=C(C)c2ccccc2[O]1,1.39 µM,2.83 µM,0.5 µM,1.55 µM,0.413 µM,1.59 µM,0.468 µM,2.8 µM,1.4 µM,2.73 µM,1.32 µM,2.63 µM,,,0.868 µM,2.11 µM,0.74 µM,5.04 µM,0.735 µM,2.34 µM
C/C=C(\C)c1cc(=O)c2c(C)cc3c(c2o1)C(OC)(OC(C)=O)c1c(O)c(C2CC(C)(N(C)C)C(OC(C)=O)C(C)O2)cc(C2CC(N(C)C)C(OC(C)=O)C(C)O2)c1C3=O (stereo not drawn),,,,,,4.94 µM,,,,> 41.8 µM,,4.68 µM,,1.49 µM,,26.1 µM,,10.3 µM,,6.44 µM
O=C(CC(=O)N1N=C(n2ccc3ccccc32)CC1c1ccccc1)Nc1ccc(Cl)cc1 (stereo not drawn),,> 100 µM,,> 100 µM,,> 100 µM,,> 100 µM,,> 100 µM,,> 100 µM,,,,> 100 µM,,> 100 µM,,> 100 µM
CCc1cccc(C)c1N1C(=O)C(=O)C(c2nc3ccccc3o2)/C(=N/NC(=S)NN)C1=O (stereo not drawn),,> 100 µM,,> 100 µM,,> 100 µM,,> 100 µM,,> 100 µM,,> 100 µM,,,,> 100 µM,,,,> 100 µM
N#CC(C#N)=Cc1ccc(C(O)P(=O)(O)O)cc1 (stereo not drawn),,> 100 µM,,> 100 µM,,> 100 µM,,> 100 µM,,> 100 µM,,> 100 µM,,,,> 100 µM,,> 100 µM,,
O=C(O)CCC(=O)Oc1ccc(O)c2c1CCCC2=O,,> 100 µM,,> 100 µM,,> 100 µM,,> 100 µM,,> 100 µM,,> 100 µM,,,,> 100 µM,,> 100 µM,,> 100 µM
CCOC(=O)NC(=O)c1cn(CCCCCCCCCCC(=O)NCCCN2CCN(CCCNC(=O)CCCCCCCCCCn3cc(C(=O)NC(=O)OCC)c(=O)[nH]c3=O)CC2)c(=O)[nH]c1=O,,> 100 µM,,> 100 µM,,> 100 µM,,,,> 10 µM,,> 100 µM,,,,> 100 µM,,> 100 µM,,> 100 µM
N#CC(C(=O)CCC(=O)Nc1ccc(Cl)cc1)c1ccc(Cl)cc1 (stereo not drawn),,> 100 µM,,> 100 µM,,> 100 µM,,> 100 µM,,> 100 µM,,> 100 µM,,,,,,> 100 µM,,
Cc1cc(Cl)ccc1NC(=O)CC1SC(=NC(=O)c2ccccc2Cl)NC1=O (stereo not drawn),,> 100 µM,,71.1 µM,,32.3 µM,,38.4 µM,,36.3 µM,,44.6 µM,,,,44.8 µM,,6.65 µM,,35 µM
Cc1ccc2nc(Sc3c([N+](=O)[O-])ncn3C)[nH]c2c1,,41 µM,,,,> 100 µM,,78.7 µM,,56.7 µM,,88.4 µM,,,,> 100 µM,,31.1 µM,,89.3 µM
N.N.N.N.N.N#Cc1nn[n-]n1.[Cl-].[Co+3],> 100 µM,> 100 µM,> 100 µM,> 100 µM,> 100 µM,> 100 µM,> 100 µM,> 100 µM,> 100 µM,> 100 µM,> 100 µM,> 100 µM,,,> 100 µM,> 100 µM,> 100 µM,> 100 µM,> 100 µM,> 100 µM
O=C(Nc1ccccc1)n1cc(-c2ccccn2)c(N2CCOCC2)n1,,> 100 µM,,,,> 100 µM,,> 100 µM,,29.5 µM,,92.8 µM,,,,,,> 100 µM,,43.7 µM
COC(=O)[C@H](Cc1ccccc1)NNC(=O)c1csc([C@@H](C[C@H](C(C)C)N(C)C(=O)[C@@H](NC(=O)[C@H]2CCCCN2C)C2CC2)OC(C)=O)n1,,25 µM and > 100 µM,0.035 µM and 0.0932 µM,> 100 µM,,25 µM and > 100 µM,,25 µM and > 100 µM,0.00213 µM,,,25 µM and > 100 µM,,,,25 µM and > 100 µM,,25 µM and > 100 µM,,
CN1C(c2ccccc2)CC(C)(O)CC1c1ccccc1 (stereo not drawn),,> 100 µM,,> 100 µM,,> 100 µM,,> 100 µM,,> 100 µM,,> 100 µM,,,,> 100 µM,,> 100 µM,,> 100 µM
